Source: PMC10443802, “Targeting a xenobiotic transporter to ameliorate vincristine-induced sensory neuropathy” (JCI Insight, 2023)
Where “and” joins values, the source holds several entries; their conditions need not be identical. Equal values may be shown once. Blank lines part the entries; values can stand above or below the molecule they belong to.

Assays:
hOATP1B3 [1] = target: T1, hOATP1B3 (Homo sapiens, UniProt Q9NPD5); assay: EβG uptake in HEK293 cells overexpressing hOATP1B3; assay type: in vitro ADME
T1 sequence (Q9NPD5 1-702): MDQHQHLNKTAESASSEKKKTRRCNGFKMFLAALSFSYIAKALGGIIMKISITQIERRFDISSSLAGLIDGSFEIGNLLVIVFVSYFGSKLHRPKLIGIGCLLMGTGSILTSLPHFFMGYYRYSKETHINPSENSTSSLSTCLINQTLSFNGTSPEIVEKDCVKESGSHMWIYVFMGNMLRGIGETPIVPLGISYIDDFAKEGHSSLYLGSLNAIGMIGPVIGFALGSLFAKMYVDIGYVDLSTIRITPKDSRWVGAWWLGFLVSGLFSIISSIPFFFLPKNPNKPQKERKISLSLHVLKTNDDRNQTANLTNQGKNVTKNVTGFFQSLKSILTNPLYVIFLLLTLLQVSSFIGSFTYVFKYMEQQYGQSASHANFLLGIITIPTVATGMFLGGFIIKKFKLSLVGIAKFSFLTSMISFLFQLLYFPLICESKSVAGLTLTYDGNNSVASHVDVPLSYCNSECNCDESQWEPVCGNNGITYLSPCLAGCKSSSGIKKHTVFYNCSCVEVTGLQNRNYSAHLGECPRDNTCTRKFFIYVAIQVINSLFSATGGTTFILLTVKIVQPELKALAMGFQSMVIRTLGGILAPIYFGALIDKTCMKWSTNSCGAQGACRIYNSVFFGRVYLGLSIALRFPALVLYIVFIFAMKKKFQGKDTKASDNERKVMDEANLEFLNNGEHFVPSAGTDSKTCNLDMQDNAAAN

hOATP1B1 [2] = target: T2, hOATP1B1 (Homo sapiens, UniProt Q9Y6L6); assay: EβG uptake in HEK293 cells overexpressing hOATP1B1; assay type: in vitro ADME
T2 sequence (Q9Y6L6 1-691): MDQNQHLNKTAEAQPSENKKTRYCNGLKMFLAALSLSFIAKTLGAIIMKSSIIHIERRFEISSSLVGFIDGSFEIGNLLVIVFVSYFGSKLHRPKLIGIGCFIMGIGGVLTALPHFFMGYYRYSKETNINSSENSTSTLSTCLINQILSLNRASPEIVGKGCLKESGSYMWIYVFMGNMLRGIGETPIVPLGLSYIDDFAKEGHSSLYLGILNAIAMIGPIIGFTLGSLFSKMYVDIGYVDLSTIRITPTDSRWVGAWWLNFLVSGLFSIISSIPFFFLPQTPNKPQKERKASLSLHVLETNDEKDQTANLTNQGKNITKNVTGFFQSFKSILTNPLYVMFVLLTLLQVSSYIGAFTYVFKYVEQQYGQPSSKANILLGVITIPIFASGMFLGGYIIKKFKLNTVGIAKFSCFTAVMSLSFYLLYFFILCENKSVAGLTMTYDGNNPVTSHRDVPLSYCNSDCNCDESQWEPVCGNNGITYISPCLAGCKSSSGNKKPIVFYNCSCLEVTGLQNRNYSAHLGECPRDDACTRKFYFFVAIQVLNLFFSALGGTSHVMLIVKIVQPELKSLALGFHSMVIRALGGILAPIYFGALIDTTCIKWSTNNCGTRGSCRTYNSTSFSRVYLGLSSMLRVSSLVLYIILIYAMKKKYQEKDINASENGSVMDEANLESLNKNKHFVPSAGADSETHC

mOATP1B2 = target: T3, mOATP1B2 (Mus musculus, UniProt Q9JJL3); assay: EβG uptake in HEK293 cells overexpressing mOATP1B2; assay type: in vitro ADME
T3 sequence (Q9JJL3 1-689): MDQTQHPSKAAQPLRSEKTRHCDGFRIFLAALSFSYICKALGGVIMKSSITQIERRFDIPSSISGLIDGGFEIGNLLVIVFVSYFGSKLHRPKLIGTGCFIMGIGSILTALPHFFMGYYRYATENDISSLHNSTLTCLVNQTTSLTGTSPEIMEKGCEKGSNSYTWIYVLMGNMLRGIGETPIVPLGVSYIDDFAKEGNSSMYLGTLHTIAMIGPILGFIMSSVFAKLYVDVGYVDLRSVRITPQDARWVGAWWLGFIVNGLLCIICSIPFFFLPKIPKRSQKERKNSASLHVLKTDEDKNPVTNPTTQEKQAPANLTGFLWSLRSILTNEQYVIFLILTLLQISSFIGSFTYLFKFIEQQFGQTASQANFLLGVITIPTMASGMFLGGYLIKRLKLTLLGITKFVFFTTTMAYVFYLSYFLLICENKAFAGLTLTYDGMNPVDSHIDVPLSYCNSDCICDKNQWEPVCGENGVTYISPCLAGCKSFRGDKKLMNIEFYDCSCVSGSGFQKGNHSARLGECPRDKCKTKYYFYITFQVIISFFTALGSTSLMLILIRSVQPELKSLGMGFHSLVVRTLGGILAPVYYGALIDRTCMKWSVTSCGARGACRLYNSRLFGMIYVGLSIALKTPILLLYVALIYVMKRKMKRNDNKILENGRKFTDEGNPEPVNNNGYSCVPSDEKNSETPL
Experimental: DRG, sciatic and caudal nerves were prepared, stained with toluidine blue, and examined with a Zeiss Axioskop WideField Light Microscope, as described previously (10). Representative images were captured with a QIClick Digital CCD color camera. For DRG morphometrics, the somatic size was measured for each cell containing nucleolus, and at least 200 DRG neurons per animal were manually measured and analyzed with a computer-assisted image analyzer (ImageJ software, Bethesda, MD). For sciatic nerve, all myelinated fibers evaluable in the analyzed space were counted and the internal (axonal) and external (total) diameters of myelinated fibers were measured on at least 500 myelinated fibers/nerve. The histograms of g-ratio (axonal diameter/whole fiber diameter as a measure of myelination degree in each fiber) distribution were generated. An observer blinded to the group compositions performed all the morphometric determinations.
Cellular accumulation. Human embryonic kidney (HEK293) cells (ATCC) overexpressing OATP1B1, […]
After incubation, transport was halted by aspirating radiolabeled drug, and rinsing the cells three times with ice-cold 1X PBS. Total radioactivity originating from the substrates was measured by lysing the cells with 1N NaOH, neutralized with 2N HCL, and measuring total radioactivity by liquid scintillation counting using an LS 6500 Counter (Beckman). […]

[3] = cited from earlier work
OATP1B2 [4] = assay: Untargeted metabolomics of plasma and DRG, WT vs OATP1B2-deficient mice; assay type: in vivo, mouse
Description: (A) Schematic overview of the untargeted metabolomics screen to discover an endogenous biomarker of OATP1B2. […] Positive fold change indicates higher plasma concentration in OATP1B2^–/– mice (n = 6 per group). […] (C) Volcano plot of differentially endogenous metabolites in untreated whole DRG samples of WT mice or OATP1B2^–/– mice. Negative fold change indicates lower DRG levels in OATP1B2^–/– mice (n = 6 per group). (D) Plasma levels and DRG/plasma ratios of α-tocopherol in WT mice or OATP1B2^–/– mice in secondary validation studies. […] Data are normalized to baseline levels observed in WT mice (n = 3 per group).

hOATP1B3 [5] = target: T1, hOATP1B3; assay: α-tocopherol uptake in HEK293 cells overexpressing hOATP1B3; assay type: in vitro ADME
hOATP1B1 [6] = target: T2, hOATP1B1; assay: α-tocopherol uptake in HEK293 cells overexpressing hOATP1B1; assay type: in vitro ADME
OATP1B2 [7] = assay: Plasma level and DRG/plasma ratio of α-tocopherol in mice (biomarker of OATP1B2 function); assay type: in vivo, mouse
hOATP1B3 [8] = target: T1, hOATP1B3; assay: Inhibition of EβG uptake in HEK293 cells overexpressing hOATP1B3

SMILES: C[C@]12CC[C@@H]3c4ccc(O)cc4CC[C@H]3[C@@H]1CC[C@@H]2O[C@@H]1O[C@H](C(=O)O)[C@@H](O)[C@H](O)[C@H]1O [EβG, estradiol-17β-ᴅ-glucuronide]
- EβG uptake (% of vector) (hOATP1B3 [1]): 5469.07 % of vector and 5408.81 % of vector and 5929.51 % of vector
- EβG uptake (% of vector) (hOATP1B1 [2]): 1260.82 % of vector and 1125.55 % of vector and 1194.22 % of vector
- EβG uptake (% of vector) (mOATP1B2): 2727.12 % of vector and 2435.39 % of vector and 2079.28 % of vector

- Fold of Change KO/WT (OATP1B2 [4]; DRG samples, untreated OATP1B2-deficient (KO) vs wild-type mice): 0.730
- Fold of Change KO/WT (OATP1B2 [4]; untreated plasma, OATP1B2-deficient (KO) vs wild-type mice): 2.03
- Substrate status (hOATP1B3 [5]; OATP1B3): transported substrate of OATP1B3
- α-tocopherol uptake (% of vehicle) (hOATP1B1 [6]; VC cells, control for hOATP1B1): 88.8965% and 111.905% and 99.1984%
- α-tocopherol uptake (% of vehicle) (hOATP1B1 [6]; cells overexpressing hOATP1B1): 109.574% and 76.2241% and 88.2425%
- Level of α-tocopherol (% of wild-type baseline), DRG/Plasma Ratio (OATP1B2 [7]; KO mice): 39.9993% and 37.2252% and 46.6384%
- Level of α-tocopherol (% of wild-type baseline), Plasma (OATP1B2 [7]; KO mice): 178.006% and 210.63% and 138.224%
- Level of α-tocopherol (% of wild-type baseline), DRG/Plasma Ratio (OATP1B2 [7]; WT mice): 92.6568% and 110.888% and 96.4551%
- Level of α-tocopherol (% of wild-type baseline), Plasma (OATP1B2 [7]; WT mice): 108.759% and 91.8035% and 99.4376%
SMILES: Cc1c(C)c2c(c(C)c1O)CC[C@@](C)(CCC[C@H](C)CCC[C@H](C)CCCC(C)C)O2 [α-tocopherol]
- Share recovered in the liver [3]: up to 90%
- α-tocopherol uptake (% of vehicle) (hOATP1B3 [5]; VC cells, control for hOATP1B3): 86.9835% and 91.7117% and 121.305% and 85.9356% and 106.189% and 107.875%
- α-tocopherol uptake (% of vehicle) (hOATP1B3 [5]; cells overexpressing hOATP1B3): 213.78% and 147.762% and 148.702% and 127.524% and 133.603% and 184.662%
- Level of α-tocopherol (% of wild-type) (OATP1B2 [7]; DRG, OATP1B2(-/-) mice): 28.1345 % of wild-type and 39.8965 % of wild-type and 39.7351 % of wild-type and 42.7289 % of wild-type and 36.0477 % of wild-type and 32.6784 % of wild-type
- Level of α-tocopherol (% of wild-type) (OATP1B2 [7]; DRG, Wild-type mice): 86.7441 % of wild-type and 109.645 % of wild-type and 120.39 % of wild-type and 114.671 % of wild-type and 77.0519 % of wild-type and 91.498 % of wild-type
- Level of α-tocopherol (% of wild-type baseline), relative DRG/plasma ratio (OATP1B2 [7]; KO (OATP1B2-/-) mice): 39.9993 % of wild-type baseline and 37.2252 % of wild-type baseline and 46.6384 % of wild-type baseline
- Level of α-tocopherol (% of wild-type) (OATP1B2 [7]; Plasma, OATP1B2(-/-) mice): 240.656 % of wild-type and 154.285 % of wild-type and 188.158 % of wild-type and 206.445 % of wild-type and 170.946 % of wild-type and 257.161 % of wild-type
- Level of α-tocopherol (% of wild-type) (OATP1B2 [7]; Plasma, Wild-type mice): 128.573 % of wild-type and 75.6647 % of wild-type and 109.778 % of wild-type and 78.7903 % of wild-type and 110.315 % of wild-type and 96.8791 % of wild-type
- Level of α-tocopherol (% of wild-type baseline), relative DRG/plasma ratio (OATP1B2 [7]; WT mice, baseline): 92.6568 % of wild-type baseline and 110.888 % of wild-type baseline and 96.4551 % of wild-type baseline
- Inhibition of transporter-mediated uptake of EβG (hOATP1B3 [8]): can mediate inhibition of transporter-mediated uptake
